# Results taken from patent publication US6949536B2, “Sulfonylbenzene compounds as anti-inflammatory/analgesic agents” (Pfizer, Inc., priority 1998, dated 2005).
# Counter-ions that a name gives are not always drawn.
row,Compound,melting point [°C]
1,"Cc1cc(-n2nc(C(F)(F)F)cc2-c2ccc(-c3cscn3)cc2)ccc1S(C)(=O)=O (as salt: hydrochloride) [Example 101, 4-{4-[1-[3-Methyl-4-(methylsulfonyl)phenyl]-3-(trifluoromethyl)-1H-pyrazol-5-yl]phenyl}-1,3-thiazole]",147 to 149
2,"CS(=O)(=O)c1ccc(-n2nc(C(F)(F)F)cc2-c2ccc(-c3cscn3)c(Cl)c2)cc1 (as salt: hydrochloride) [Example 119, 4-{2-Chloro-4-[1-[4-(methylsulfonyl)phenyl]-3-(trifluoromethyl)-1H-pyrazol-5-yl]phenyl}-1,3-thiazole]",128 to 130
3,"CS(=O)(=O)c1ccc(-n2nc(C(F)(F)F)cc2-c2ccc(-c3ncco3)cc2)cc1 (as salt: hydrochloride) [Example 97, 2-{4-[1-[4-(Methylsulfonyl)phenyl]-3-(trifluoromethyl)-1H-pyrazol-5-yl]phenyl}-1,3-oxazole]",190 to 192
4,"Cc1cc(-c2cc(C(F)(F)F)nn2-c2ccc(S(C)(=O)=O)c(F)c2)ccc1-c1cscn1 [Example 106, 4-{4-[1-[3-Fluoro-4-(methylsulfonyl)phenyl]-3-(trifluoromethyl)-1H-pyrazol-5-yl]-2-methylphenyl}-1,3-thiazole]",112 to 114
5,"CS(=O)(=O)c1ccc(-n2nc(C(F)(F)F)cc2-c2ccc(-c3cnco3)cc2)cc1 (as salt: hydrochloride) [Example 76, 1-[4-(Methylsulfonyl)phenyl]-5-[4-(5-oxazolyl)phenyl]-3-(trifluoromethyl)-1H-pyrazole]",178 to 180
6,"CS(=O)(=O)c1ccc(-n2nc(C(F)(F)F)cc2-c2ccc(-c3cscn3)cc2)cc1F [Example 99, 4-{4-[1-[3-Fluoro-4-(methylsulfonyl)phenyl]-3-(trifluoromethyl)-1H-pyrazol-5-yl]phenyl}-1,3-thiazole]",125 to 127
7,"Cc1cc(-c2cc(C(F)(F)F)nn2-c2ccc(S(C)(=O)=O)cc2)ccc1-c1ccco1 (as salt: hydrochloride) [Example 31, 1-[4-(Methylsulfonyl)phenyl]-5-[4-(2-furyl)-3-methylphenyl]-3-(trifluoromethyl)-1H-pyrazole]",174 to 176
8,"CS(=O)(=O)c1ccc(-n2nc(C(=O)O)cc2-c2ccc(-c3ccco3)cc2)cc1F [Example 128, 1-[3-Fluoro-4-(methylsulfonyl)phenyl]-5-[4-(2-furyl)phenyl]-1H-pyrazole-3-carboxylic Acid]",171.5 to 173
9,"CS(=O)(=O)c1ccc(-n2nc(C(F)(F)F)cc2-c2ccc(-c3cccs3)cc2)cc1F [Example 86, 1-[3-Fluoro-4-(methylsulfonyl)phenyl]-5-[4-(2-thienyl)phenyl]-3-(trifluoromethyl)-1H-pyrazole]",75 to 76
10,"CS(=O)(=O)c1ccc(-n2nc(C(F)(F)F)cc2-c2ccc(-c3ccco3)c(Cl)c2)cc1 (as salt: hydrochloride) [Example 71, 1-[4-(Methylsulfonyl)phenyl]-5-[3-chloro-4-(2-furyl)phenyl]-3-(trifluoromethyl)-1H-pyrazole]",143 to 145
11,"CS(=O)(=O)c1ccc(-n2nc(C(F)(F)F)cc2-c2ccc(-c3ccco3)cc2)cc1F [Example 60, 1-[3-Fluoro-4-(methylsulfonyl)phenyl]-5-[4-(2-furyl)phenyl]-3-(trifluoromethyl)-1H-pyrazole]",129 to 130
12,"COc1cc(-n2nc(C(F)(F)F)cc2-c2ccc(-c3ccco3)cc2)ccc1S(N)(=O)=O (as salt: hydrochloride) [Example 148, 4-[5-[4-(2-Furyl)phenyl]-3-(trifluoromethyl)-1H-pyrazol-1-yl]-2-methoxybenzenesulfonamide]",206.7
13,"CCOC(=O)c1cc(-c2ccc(-c3ccco3)cc2)n(-c2ccc(S(C)(=O)=O)c(F)c2)n1 [Example 126, Ethyl 1-[3-Fluoro-4-(methylsulfonyl)phenyl]-5-[4-(2-furyl)phenyl]-1H-pyrazole-3-carboxylate]",172
14,"CNC(=O)c1cc(-c2ccc(-c3ccco3)cc2)n(-c2ccc(S(C)(=O)=O)c(F)c2)n1 [Example 131, N-Methyl-1-[3-fluoro-4-(methylsulfonyl)phenyl]-5-[4-(2-furyl)phenyl]-1H-pyrazole-3-carboxamide]",196 to 198
15,"CS(=O)(=O)c1ccc(-n2cc(C(F)(F)F)nc2-c2ccc(-c3cscn3)cc2)cc1F [Example 153, 1-[3-Fluoro-4-(methylsulfonyl)phenyl]-2-[4-(4-thiazolyl)phenyl]-4-trifluoromethyl-1H-imidazole]",112.5 to 115
16,"NS(=O)(=O)c1ccc(-n2nc(C(F)(F)F)cc2-c2ccc(-c3ncco3)cc2)cc1 (as salt: hydrochloride) [Example 98, 4-[5-[4-(1,3-Oxazol-2-yl)phenyl]-3-(trifluoromethyl)-1H-pyrazol-1-yl]benzenesulfonamide]",215 to 217
17,"CS(=O)(=O)c1ccc(-n2nc(C(F)(F)F)cc2-c2ccc(-c3ccoc3)cc2)cc1 [Example 20, 1-[4-(Methylsulfonyl)phenyl]-5-[4-(3-furyl)phenyl]-3-trifluoromethyl-1H-pyrazole]",165 to 166
18,"CS(=O)(=O)c1ccc(-n2nc(C(F)(F)F)cc2-c2ccc(-c3cncs3)cc2)cc1 [Example 24, 1-[4-(Methylsulfonyl)phenyl]-5-[4-(5-thiazolyl)phenyl]-3-trifluoromethyl-1H-pyrazole]",169 to 170
19,"Cc1ccc(-c2ccc(S(C)(=O)=O)cc2)n1-c1ccc(-c2ccoc2)cc1 [Example 38, 5-[4-(Methylsulfonyl)phenyl]-1-[4-(3-furyl)phenyl]-2-methyl-1H-pyrrole]",200 to 202
20,"Cc1ccc(-c2ccc(S(C)(=O)=O)cc2)n1-c1ccc(-c2ccc[nH]2)cc1 [Example 47, 2-Methyl-5-[4-(methylsulfonyl)phenyl]-1-[4-(2-pyrrolyl)phenyl]-1H-pyrrole]",225 to 227
21,"CS(=O)(=O)c1ccc(-n2nc(C(=O)N3CCOCC3)cc2-c2ccc(-c3ccco3)cc2)cc1F [Example 130, 1-[3-Fluoro-4-(methylsulfonyl)phenyl]-5-[4-(2-furyl)phenyl]-3-(4-morpholinecarbonyl)-1H-pyrazole]",221 to 222
22,"Cc1cc(-c2cc(C(F)(F)F)nn2-c2ccc(S(C)(=O)=O)cc2)ccc1-c1cocn1 (as salt: hydrochloride) [Example 112, 4-{2-Methyl-4-[1-[4-(methylsulfonyl)phenyl]-3-(trifluoromethyl)-1H-pyrazol-5-yl]phenyl}-1,3-oxazole]",148 to 150
23,"Cc1cc(-c2cc(C(F)(F)F)nn2-c2ccc(S(N)(=O)=O)c(F)c2)ccc1-c1cscn1 (as salt: hydrochloride) [Example 113, 2-Fluoro-4-[5-[3-methyl-4-(1,3-thiazol-4-yl)phenyl]-3-(trifluoromethyl)-1H-pyrazol-1-yl]benzenesulfonamide]",125 to 127

# Next, values leading:
row,melting point [°C],Compound
1,204.3,"Cc1cc(-c2ccnn2-c2ccc(S(N)(=O)=O)c(F)c2C(F)F)ccc1-c1cscn1 (as salt: hydrochloride) [Example 195, 3-(Difluoromethyl)-2-fluoro-4-[5-[3-methyl-4-(1,3-thiazol-4-yl)phenyl]-1H-pyrazol-1-yl]benzenesulfonamide]"
2,192 to 194,"Cc1nc(-c2ccc(S(N)(=O)=O)c(F)c2)c(-c2ccc(-c3cscn3)cc2)o1 [Example 193, 2-fluoro-4-[2-methyl-5-[4-(1,3-thiazol-4-yl)phenyl]-1,3-oxazol-4-yl]benzenesulfonamide]"
3,97 to 99,"COc1cc(-c2cc(C(F)(F)F)nn2-c2ccc(S(N)(=O)=O)c(F)c2)ccc1-c1cscn1 (as salt: hydrochloride) [Example 175, 2-Fluoro-4-[5-[3-methoxy-4-(1,3-thiazol-4-yl)phenyl]-3-(trifluoromethyl)-1H-pyrazol-1-yl]benzenesulfonamide]"
4,130,"Cc1onc(-c2ccc(-c3cscn3)cc2)c1-c1ccc(S(C)(=O)=O)c(F)c1 [Example 168, 4-[3-Fluoro-4-(methylsulfonyl)phenyl]-5-methyl-3-[4-(1,3-thiazol-4-yl)phenyl]isoxazole]"
5,180.3,"Cc1cc(C2=C(c3ccc(S(C)(=O)=O)cc3)C(C)(C)OC2=O)ccc1-c1cscn1 [Example 184, 5,5-Dimethyl-3-[3-methyl-4-(1,3-thiazol-4-yl)phenyl]-4-[4-(methylsulfonyl)phenyl]-2(5H)-furanone]"
6,225.2,"CC(=O)Nc1cnn(-c2ccc(S(C)(=O)=O)c(F)c2)c1-c1ccc(-c2cscn2)cc1 [Example 164, N-[1-[3-Fluoro-4-(methylsulfonyl)phenyl]-5-[4-(1,3-thiazol-4-yl)phenyl]-1H-pyrazol-4-yl]acetamide]"
7,224 to 226,"NS(=O)(=O)c1ccc(-n2nc(C(F)(F)F)cc2-c2ccc(-c3cscn3)c(O)c2)cc1F (as salt: hydrochloride) [Example 174, 2-Fluoro-4-[5-[3-hydroxy-4-(1,3-thiazol-4-yl)phenyl]-3-(trifluoromethyl)-1H-pyrazol-1-yl]benzenesulfonamide]"
8,140 to 142,"NS(=O)(=O)c1ccc(-n2nc(C(F)(F)F)cc2-c2ccc(-c3cscn3)c(C(F)(F)F)c2)cc1F [Example 176, 2-Fluoro-4-[5-[4-(1,3-thiazol-4-yl)-3-(trifluoromethyl)phenyl]-3-(trifluoromethyl)-1H-pyrazol-1-yl]benzenesulfonamide]"
9,135 to 139,"Cc1cc(-n2nc(C(F)(F)F)cc2-c2ccc(-c3ccco3)cc2)ccc1S(C)(=O)=O (as salt: hydrochloride) [Example 157, 5-[4-(2-Furyl)phenyl]-1-[3-methyl-4-(methylsulfonyl)phenyl]-3-(trifluoromethyl)-1H-pyrazole]"
10,194.2,"NS(=O)(=O)c1ccc(C2=C(c3ccc(-c4cscn4)cc3)C(=O)OC2)cc1F [Example 167, 2-Fluoro-4-[5-oxo-4-[4-(1,3-thiazol-4-yl)phenyl]-2,5-dihydro-3-furanyl]benzenesulfonamide]"
